Test results from PMC11012124, “Synthesis of Novel Triazine-Based Chalcones and 8,9-dihydro-7H-pyrimido[4,5-b][1,4]diazepines as Potential Leads in the Search of Anticancer, Antibacterial and Antifungal Agents” (International Journal of Molecular Sciences, 2024).

Assays:
LOX IMVI = test: cells; settings: Homo sapiens, 48 h; for CC50: read-out: LC50, LOX IMVI, 48 h
A549/ATCC = test: cells; settings: Homo sapiens, A549, 48 h; for CC50: read-out: LC50
HCT-116 = test: cells; settings: Homo sapiens, HCT-116, 48 h; for CC50: read-out: LC50
HCC-2998 = test: cells; settings: Homo sapiens, HCC 2998, 48 h; for CC50: read-out: LC50
MCF7 = test: cells; settings: Homo sapiens, MCF7, 48 h; for CC50: read-out: LC50
HOP-92 = test: cells; settings: Homo sapiens, HOP-92, 48 h; for CC50: read-out: LC50
BT-549 = test: cells; settings: Homo sapiens, BT-549, 48 h; for CC50: read-out: LC50
SN12C = test: cells; settings: Homo sapiens, 48 h; for CC50: read-out: LC50
60 cancer cell lines = test: NCI-60 one-dose screen (10 μM); format: cell-based; settings: Homo sapiens; one dose of 10 μM, mean over 60 cancer cell lines; read-out: Mean Growth Percent (MGP)
Text: Additionally, the mean of the growth percentages (MGP) of each compound against all the 60 cancer cell lines is also reported, which is used as one of the selection criteria to continue with tests at five concentration doses.

ACHN = test: cells; settings: Homo sapiens, 48 h; for CC50: read-out: LC50
UACC-257 = test: cells; settings: Homo sapiens, UACC-257, 48 h; for CC50: read-out: LC50
SNB-75 = test: cells; settings: Homo sapiens, SNB-75, 48 h; for CC50: read-out: LC50
PC-3 = test: cells; settings: Homo sapiens, PC-3, 48 h; for CC50: read-out: LC50
K-562 = test: cells; settings: Homo sapiens, K562, 48 h; for GI50: K-562, 48 h; for CC50: read-out: LC50
SK-MEL-28 = test: cells; settings: Homo sapiens, SK-MEL-28, 48 h; for CC50: read-out: LC50
IGROV1 = test: cells; settings: Homo sapiens, IGROV-1, 48 h; for CC50: read-out: LC50
HL-60(TB) = test: cells; settings: Homo sapiens, HL-60, 48 h; for CC50: read-out: LC50
NCI-H460 = test: cells; settings: Homo sapiens, NCI-H460, 48 h; for CC50: read-out: LC50
OVCAR-8 = test: cells; settings: Homo sapiens, OVCAR-8, 48 h; for CC50: read-out: LC50
EKVX = test: cells; settings: Homo sapiens, 48 h; for CC50: read-out: LC50
MDA-MB-231/ATCC = test: cells; settings: Homo sapiens, MDA-MB-231, 48 h; for CC50: read-out: LC50
OVCAR-5 = test: cells; settings: Homo sapiens, OVCAR-5, 48 h; for CC50: read-out: LC50
TK-10 = test: cells; settings: Homo sapiens, TK-10, 48 h; for CC50: read-out: LC50
NCI-H23 = test: cells; settings: Homo sapiens, NCI-H23, 48 h; for CC50: read-out: LC50
RPMI-8226 = test: cells; settings: Homo sapiens, RPMI-8226, 48 h; for CC50: read-out: LC50
NCI-H226 = test: cells; settings: Homo sapiens, NCI-H226, 48 h; for CC50: read-out: LC50
SK-OV-3 = test: cells; settings: Homo sapiens, SK-OV-3, 48 h; for CC50: read-out: LC50
MDA-MB-435 = test: cells; settings: Homo sapiens, MDA-MB-435, 48 h; for CC50: read-out: LC50
MOLT-4 = test: cells; settings: Homo sapiens, MOLT-4, 48 h; for CC50: read-out: LC50
CCRF-CEM = test: cells; settings: Homo sapiens, 48 h; for CC50: read-out: LC50
M14 = test: cells; settings: Homo sapiens, M14, 48 h; for CC50: read-out: LC50
SF-539 = test: cells; settings: Homo sapiens, SF-539, 48 h; for CC50: read-out: LC50, SF-539, 48 h
SW-620 = test: cells; settings: Homo sapiens, SW-620, 48 h; for CC50: read-out: LC50
A498 = test: cells; settings: Homo sapiens, A498, 48 h; for CC50: read-out: LC50
HS 578T = test: cells; settings: Homo sapiens, 48 h; for CC50: read-out: LC50
MALME-3M = test: cells; settings: Homo sapiens, 48 h; for CC50: read-out: LC50
[1] = Hemolytic activity, spectrophotometric; format: cell-based, human; settings: human, human red blood cells (huRBC), 5% hematocrit, 200 μg/mL, 37 °C

## COc1cc(/C=C/C(=O)c2ccc(C)cc2)ccc1Oc1nc(Nc2ccc(F)cc2)nc(N(C)C)n1 [21b]
LOX IMVI
  GI50: 1.84 µM
  CC50: 6.69 µM
A549/ATCC
  GI50: 45.8 µM
  CC50: > 100 µM
HCT-116
  GI50: 2.28 µM
  CC50: 24.4 µM
HCC-2998
  GI50: 20.5 µM
  CC50: > 100 µM
MCF7
  GI50: 3.57 µM
  CC50: > 100 µM
HOP-92
  GI50: 4.57 µM
  CC50: > 100 µM
BT-549
  GI50: 6.27 µM
  CC50: 91.3 µM
SN12C
  GI50: 3.89 µM
  CC50: 73 µM
60 cancer cell lines
  activity at 10 µM: 39%
ACHN
  GI50: 9.58 µM
  CC50: 96.5 µM
UACC-257
  GI50: 8.76 µM
  CC50: > 100 µM
SNB-75
  GI50: 15.4 µM
  CC50: > 100 µM
PC-3
  GI50: 8.85 µM
  CC50: > 100 µM
K-562
  GI50: 4.2 µM
  CC50: > 100 µM
SK-MEL-28
  GI50: 12.3 µM
  CC50: 79.6 µM
IGROV1
  GI50: 13.8 µM
  CC50: 99.1 µM
HL-60(TB)
  GI50: 19.1 µM
  CC50: > 100 µM
NCI-H460
  GI50: 12.1 µM
  CC50: > 100 µM
OVCAR-8
  GI50: 7.19 µM
  CC50: > 100 µM
EKVX
  GI50: 6.71 µM
  CC50: > 100 µM
MDA-MB-231/ATCC
  GI50: 5.24 µM
  CC50: 50.8 µM
OVCAR-5
  GI50: 16.5 µM
  CC50: > 100 µM
TK-10
  GI50: 18.2 µM
  CC50: > 100 µM
NCI-H23
  GI50: 5.52 µM
  CC50: > 100 µM
RPMI-8226
  GI50: 3 µM
  CC50: > 100 µM
NCI-H226
  GI50: 5.22 µM
  CC50: 49.1 µM
SK-OV-3
  GI50: 48.9 µM
  CC50: > 100 µM
MDA-MB-435
  GI50: 11.4 µM
  CC50: 70.4 µM
MOLT-4
  GI50: 2.8 µM
  CC50: > 100 µM
CCRF-CEM
  GI50: 3.92 µM
  CC50: > 100 µM
M14
  GI50: 14.7 µM
  CC50: > 100 µM
SF-539
  GI50: 7.64 µM
  CC50: 44.9 µM
SW-620
  GI50: 2.36 µM
  CC50: 20.1 µM
A498
  GI50: 41.8 µM
  CC50: > 100 µM
HS 578T
  GI50: 7.24 µM
  CC50: > 100 µM
MALME-3M
  GI50: 15.4 µM
  CC50: 72.3 µM
[1]
  hemolysis at 24 h, 200 µg/mL: 13%

## COc1cc(/C=C/C(=O)c2cc(OC)c(OC)c(OC)c2)ccc1Oc1nc(Nc2ccc(F)cc2)nc(N(C)C)n1 [21d]
LOX IMVI
  GI50: 0.478 µM
  CC50: 4.11 µM
A549/ATCC
  GI50: 4.49 µM
  CC50: 54.7 µM
HCT-116
  GI50: 1.4 µM
  CC50: 7.24 µM
HCC-2998
  GI50: 2.03 µM
  CC50: 8.52 µM
MCF7
  GI50: 1.06 µM
  CC50: 67 µM
HOP-92
  GI50: 1.67 µM
  CC50: 50.9 µM
BT-549
  GI50: 1.56 µM
  CC50: 6.56 µM
SN12C
  GI50: 1.23 µM
  CC50: 6.04 µM
60 cancer cell lines
  activity at 10 µM: -33.4%
ACHN
  GI50: 2.3 µM
  CC50: 50.6 µM
UACC-257
  GI50: 2.83 µM
  CC50: > 100 µM
SNB-75
  GI50: 2.54 µM
  CC50: 81.8 µM
PC-3
  GI50: 2.77 µM
  CC50: > 100 µM
K-562
  GI50: 1.4 µM
  CC50: > 100 µM
SK-MEL-28
  GI50: 1.8 µM
  CC50: 9.23 µM
IGROV1
  GI50: 1.93 µM
  CC50: 12.2 µM
HL-60(TB)
  GI50: 2.21 µM
  CC50: > 100 µM
NCI-H460
  GI50: 1.45 µM
  CC50: 7.53 µM
OVCAR-8
  GI50: 1.55 µM
  CC50: > 100 µM
EKVX
  GI50: 2.15 µM
  CC50: 31.1 µM
MDA-MB-231/ATCC
  GI50: 1.48 µM
  CC50: 8.63 µM
OVCAR-5
  GI50: 1.48 µM
  CC50: 11.6 µM
TK-10
  GI50: 2.53 µM
  CC50: 38.1 µM
NCI-H23
  GI50: 1.63 µM
  CC50: 8.08 µM
RPMI-8226
  GI50: 0.751 µM
  CC50: > 100 µM
NCI-H226
  GI50: 1.44 µM
  CC50: 7.24 µM
SK-OV-3
  GI50: 8.42 µM
  CC50: 97.4 µM
MDA-MB-435
  GI50: 1.63 µM
  CC50: 7.69 µM
MOLT-4
  GI50: 0.472 µM
  CC50: > 100 µM
CCRF-CEM
  GI50: 2.19 µM
  CC50: > 100 µM
M14
  GI50: 2.83 µM
  CC50: 32.8 µM
SF-539
  GI50: 1.64 µM
  CC50: 5.81 µM
SW-620
  GI50: 1.55 µM
  CC50: 6.89 µM
A498
  GI50: 3.99 µM
  CC50: 38.9 µM
HS 578T
  GI50: 2.39 µM
  CC50: > 100 µM
MALME-3M
  GI50: 1.75 µM
  CC50: 11.1 µM
[1]
  hemolysis at 24 h, 200 µg/mL: 8%
